According to patent US4659726A, “Novel 4,5-Bis (4-methoxyphenyl)-2-(pyrrol-2-yl) thiazoles and pharmaceutical composition containing the same” (Kanebo, Ltd., priority 1984, dated 1987):

How the values were obtained:
[1] = test system: Platelet aggregation (arachidonate); assay: Platelet aggregation inhibitory activity, ex vivo after oral administration to guinea pigs, sodium arachidonate as aggregating agent; format: in vivo, Hartley strain male guinea pigs; conditions: Cavia porcellus, oral, guinea pig, blood collected after 3 hours, 1.0 mM sodium arachidonate (50 μl), 50% inhibitory rate, read-out: Platelet aggregation inhibitory activity Arachidonate ED50
Description: (§1) Hartley strain male guinea pigs (weighing 300-350 g, one group: three animals) were fasted overnight, and to the animals were orally administered a solution or suspension of the test compounds in corn oil-10% arabic gum. […] The citrated blood thus obtained was centrifuged at 1,700 rpm for 10 minutes, and a platelet-rich plasma (PRP) was obtained from the supernatant. After isolating PRP, the remaining blood was further centrifuged at 3,000 rpm for 10 minutes, and a platelet-poor plasma (PPP) was obtained from the supernatant.
(§2) The PRP (450 μl) thus obtained was incubated at 37° C. for 3 minutes, and thereto was added 1.0 mM sodium arachidonate (50 μl) as an aggregating agent, and then the platelet aggregation thereof was measured with Platelet Aggregation Profiler® (Model PAP-3, manufactured by Bio Data Corp.) while using the PPP obtained above as a blank. As a control, as to animals to which no test compound was administered, the platelet aggregation rate was measured likewise.
(§3) The platelet aggregation inhibitory rate was calculated by the following equation. [formula]

[2] = in vivo; conditions: mouse, oral, ddy male mice, deaths counted at 10 days, Weil method, read-out: Acute toxicity LD50
Source text: ddy male mice (weighing 18-23 g, one group: 5 animals) were fasted overnight, and thereto was orally administered a suspension of the test compounds in 1% arabic gum solution.

[3] = test system: Platelet aggregation (collagen); assay: Platelet aggregation inhibitory activity, ex vivo after oral administration to guinea pigs, collagen as aggregating agent; format: in vivo, Hartley strain male guinea pigs; conditions: Cavia porcellus, oral, guinea pig, blood collected after 3 hours, 100 μg/ml collagen suspension (50 μl), 50% inhibitory rate, read-out: Platelet aggregation inhibitory activity Collagen ED50
Description: as §1, §2, §3
Moreover, the above method was repeated except that 100 μg/ml collagen suspension (50 μl) was used as an aggregating agent instead of sodium arachidonate.

Compound | ED50 [1] [mg/kg] | LD50 at 240 h [2] [mg/kg] | ED50 [3] [mg/kg]
CCOCCn1cccc1-c1nc(-c2ccc(OC)cc2)c(-c2ccc(OC)cc2)s1 [Ex. 38, 4,5-bis(4-methoxyphenyl)-2-[1-(2-ethoxyethyl)pyrrol-2-yl]thiazole] | 0.09 | > 3000 | 0.29
C=COCCn1cccc1-c1nc(-c2ccc(OC)cc2)c(-c2ccc(OC)cc2)s1 [Ex. 39, 4,5-bis(4-methoxyphenyl)-2-[1-(2-vinyloxyethyl)pyrrol-2-yl]thiazole] | 0.33 | > 3000 | 0.49
CCSCCn1cccc1-c1nc(-c2ccc(OC)cc2)c(-c2ccc(OC)cc2)s1 [Ex. 40, 4,5-bis(4-methoxyphenyl)-2-[1-(2-ethylthioethyl)pyrrol-2-yl]thiazole] | 0.41 | > 3000 | 0.51
CCOCCCn1cccc1-c1nc(-c2ccc(OC)cc2)c(-c2ccc(OC)cc2)s1 [Ex. 41, 4,5-bis(4-methoxyphenyl)-2-[1-(3-ethoxypropyl)pyrrol-2-yl]thiazole] | 0.3 | > 3000 | 0.35
